Data reported in publication doi:10.1101/2025.07.31.667081v1 (biorxiv, 2025).
Substitutions are numbered along the chain they refer to.

What was measured:
Format in all cases: cell-based
[1] = biological target: T1, NVL-SNAP (recombinant NVL WT; SNAP-NVL-3xFlag) (Homo sapiens, UniProt O15381, R403W); assay: in-cell UV photocrosslinking, click dye, gel fluorescence of purified NVL
T1 sequence (O15381 1-856 R403W): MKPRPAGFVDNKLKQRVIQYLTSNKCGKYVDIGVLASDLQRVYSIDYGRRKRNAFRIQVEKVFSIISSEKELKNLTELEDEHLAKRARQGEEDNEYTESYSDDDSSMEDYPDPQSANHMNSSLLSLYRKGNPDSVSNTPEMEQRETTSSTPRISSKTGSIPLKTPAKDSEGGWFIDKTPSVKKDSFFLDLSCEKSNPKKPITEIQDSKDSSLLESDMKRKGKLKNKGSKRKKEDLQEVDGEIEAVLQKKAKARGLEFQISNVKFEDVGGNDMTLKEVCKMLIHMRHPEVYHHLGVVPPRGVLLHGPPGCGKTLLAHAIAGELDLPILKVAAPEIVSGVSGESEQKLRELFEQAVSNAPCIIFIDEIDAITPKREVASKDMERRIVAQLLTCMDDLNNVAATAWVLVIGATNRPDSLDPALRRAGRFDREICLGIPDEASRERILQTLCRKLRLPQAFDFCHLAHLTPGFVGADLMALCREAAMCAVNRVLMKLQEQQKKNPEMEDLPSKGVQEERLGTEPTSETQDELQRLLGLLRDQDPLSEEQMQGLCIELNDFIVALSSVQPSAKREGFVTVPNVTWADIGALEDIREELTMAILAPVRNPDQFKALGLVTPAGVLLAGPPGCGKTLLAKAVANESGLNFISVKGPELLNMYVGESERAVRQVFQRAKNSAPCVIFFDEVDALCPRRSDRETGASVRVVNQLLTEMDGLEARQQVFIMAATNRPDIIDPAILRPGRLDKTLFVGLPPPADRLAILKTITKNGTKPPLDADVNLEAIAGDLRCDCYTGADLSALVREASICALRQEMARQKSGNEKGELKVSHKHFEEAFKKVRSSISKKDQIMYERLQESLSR

[2] = biological target: T2, NVL-SNAP (recombinant NVL WT; SNAP-NVL-3xFlag) (Homo sapiens, UniProt O15381); assay: as above
T2 sequence (O15381 1-856): T1 sequence (O15381 1-856 R403W) with W403R

[3] = biological target: T2, NVL-SNAP (recombinant NVL WT; SNAP-NVL-3xFlag); assay: competition of MM514 photocrosslinking to NVL-SNAP

| Structure (SMILES) | EC50 [1] [nM] | EC50 [2] [nM] | EC50 [3] [nM] |
| --- | --- | --- | --- |
| C#CCOCCN1C(=O)c2ccccc2Sc2cc(NC(=O)c3ccc(N=[N+]=[N-])cc3)ccc21 [MM514, 4-Azido-N-(11-oxo-10-(2-(prop-2-yn-1-yloxy)ethyl)-10,11-dihydro-dibenzo[b,f][1,4]thiazepin-7-yl)benzamide] | > 17000 | 490 | – |
| COCCN1C(=O)c2ccccc2Sc2cc(NC(=O)c3ccc(OC)cc3)ccc21 [MM524, 4-Methoxy-N-(10-(2-methoxyethyl)-11-oxo-10,11-dihydrodibenzo[b,f][1,4]thiazepin-7-yl)benzamide] | – | – | 2600 |
| COCCN1C(=O)c2ccccc2Sc2cc(NC(=O)c3ccccc3OC)ccc21 [MM691, 2-Methoxy-N-(10-(2-methoxyethyl)-11-oxo-10,11-dihydrodibenzo[b,f][1,4]thiazepin-7-yl)benzamide] | – | – | 26000 |
